Laboratory results published in paper PMC4188581 (PLoS ONE, 2014).
Ends that are not written are not given here.

Assays:
CDK2/Cyclin E complex = target: T1, CDK2/Cyclin E complex (Homo sapiens, UniProt P24941); assay: Cyclin E immunoprecipitation and Western blot for CDK2 (complex dissociation); assay type: biochemical; settings: 10 µM peptide, C81 fractionated cell extracts
T1 construct: endogenous in cells; host or cells: C81 (HTLV-1-infected T-cell line), size-exclusion fractions 28-31 of whole cell lysate
Protocol: This is discussed below by the kinase activity experiment.
(§1) B) Immunoprecipitated Cyclin E samples in the presence of peptides were assessed for kinase activity. Histone H1 (1 µg/reaction) was added to each reaction tube along with 2 µl of (γ-32P) ATP (3000 Ci/mmol). Reactions were incubated at 37°C for 30 min and stopped by the addition Laemmli buffer. The samples were separated on a 4–20% Tris–Glycine gel. Samples were ran on a gel, dried, and exposed to a PhosphorImager cassette and analyzed using Molecular Dynamic’s ImageQuant Software.
C81 whole cell lysate (5 mg) was fractionated on a Superose 6 HR 10/30 column (Amersham Biosciences, Piscataway, NJ) in Buffer D (20 mM HEPES (pH 7.9), 0.05 M KCl, 0.2 mM EDTA, 0.5 mM PMSF, 0.05 DTT, and 20% Glycerol). Flow-through was collected at 0.5 ml for 50 fractions.
The pooled C81 extracts (250 µg each) were combined with 10 µM of each respective peptide. Cyclin E antibody (Santa Cruz, sc-198) was added to each reaction tube (10 µl, 2 µg), the reaction mixture was brought up to 500 µl with TNE50+0.1% NP-40 (100 mM Tris, pH 8.0; 50 mM NaCl; 1 mM EDTA, 0.1% Nonidet P-40) and was allowed to incubate while rotating overnight at 4°C. α-IgG was added to extract as a negative control, and an IP was performed in the absence of competing peptide, acting as a positive control. […]

CDK2/Cyclin complex = target: T2, CDK2/Cyclin complex (Homo sapiens, UniProt P24941); assay: Kinase assay of immunoprecipitated Cyclin E samples with Histone H1; assay type: biochemical; settings: 10 µM peptide, Histone H1 substrate
T2 construct: endogenous in cells; host or cells: C81 (HTLV-1-infected T-cell line), size-exclusion fractions 28-31 of whole cell lysate
Protocol: as §1
The levels of phosphorylation of H1 are shown in the presence of the six designed peptides.
Immunoprecipitated samples were assessed for kinase activity. After the final TNE50+0.1% NP-40 wash, beads were washed with kinase buffer (50 mM HEPES, 10 mM MgCl2, 5 mM MnCl2, 1 mM DTT, 50 mM NaF, 0.2 mM Na3VO4 and one complete tablet of protease cocktail inhibitor/50 ml buffer) to equilibrate the reaction. Histone H1 (1 µg) was added to each reaction tube along with the γ-32P ATP (2 µl at 3000 Ci/mmol). Reactions were incubated at 37°C for 30 min and stopped by the addition of 15 µl Laemmli buffer. The samples were separated by reducing SDS-PAGE on a 4–20% Tris–Glycine gel. Gels were stained with Coomassie blue, destained, and then dried for 2 hours. Following drying, the gels were exposed to a PhosphorImager cassette and analyzed utilizing Molecular Dynamic’s ImageQuant Software.

CDK2 = CDK2 (Homo sapiens, UniProt P24941); assay: Surface Plasmon Resonance (SPR) peptide binding assay; settings: for Ka1 / Ka2 / Kd1 / Kd2: two-state model
Protocol: Data were fitted globally by using the standard two state models provided by Biacore T200 Software v2.0.
Single-cycle kinetics experiments were performed with a T200 apparatus. The experiments were done on S-CM5 sensor chips coated with 6000 RU of CDK2. A flow cell left blank was used for double-referencing of the sensorgrams. Binding experiments were performed in standard PBS-P buffer with 60 µM ATP as running buffer (10 mM NaH2PO4/Na2HPO4, 150 mM NaCl, 60 µM ATP and 0.05% surfactant P20, pH 7.4) at 25°C with a flow rate of 30 µl/min. The peptide samples were prepared in the running buffer, and were injected.
Single-cycle kinetics assay were performed using the standard SCK method implemented by the T200 Control Software. In single-cycle analysis, the analyte is injected with increasing concentrations in a single cycle. The surface is not regenerated between injections. A blank injection of buffer only was subtracted from each curve, and reference sensorgrams were subtracted from experimental sensorgrams to yield curves representing specific binding. Data were fitted globally by using the standard two-state model provided by T200 Software v2.0. The data shown are representative of at least three independent experiments.

Ka1 (CDK2; with 60 µM ATP) | Ka1 (CDK2; without ATP) | Kd (CDK2; without ATP) | Compound | dissociation of CDK2 from the CDK2/Cyclin complex (CDK2/Cyclin E complex) | kinase activity (phosphorylation of H1) (CDK2/Cyclin complex) | mechanism of binding (SPR response curve) (CDK2) | Ka2 (CDK2; with 60 µM ATP) | Kd1 (CDK2; with 60 µM ATP) | Kd2 (CDK2; with 60 µM ATP) | Ka2 (CDK2; without ATP) | Kd1 (CDK2; without ATP) | Kd2 (CDK2; without ATP)
612.9 ± 13.0 M⁻¹ s⁻¹ | 434.1 ± 6.6 M⁻¹ s⁻¹ |  | CC(C)C[C@H](NC(=O)[C@H](C)NC(=O)[C@H](C)NC(=O)[C@@H](N)CC(=O)O)C(=O)N[C@H](C(=O)O)[C@@H](C)O [DAALT, NH2-D-A-A-L-T-OH] | dissociation of CDK2 from the CDK2/Cyclin complex | clear loss of kinase activity | fast binding and fast dissociation | 34.6±1.0 E-3 1/Ms | 101.2±4.3 E-3 1/s | 10.1±0.1 E-3 1/s | 14.1±0.4 E-4 1/Ms | 23.2±0.4 E-3 1/s | 1.3±0.6 E-5 1/s
 |  |  | CC(C)C[C@H](NC(=O)[C@H](C)NC(=O)[C@H](C)NC(=O)[C@@H](N)Cc1ccc(O)cc1)C(=O)N[C@@H](CCC(N)=O)C(=O)O [YAALQ, NH2-Y-A-A-L-Q-OH] | weak complex disassociation | clear loss of kinase activity | fast binding and fast dissociation | 12.3±0.3 E-3 1/Ms | 53.9±1.4 E-3 1/s | 1.6±0.1 E-3 1/s | 9.0±0.3 E-3 1/Ms | 84.0±2.7 E-3 1/s | 2.2±0.1 E-3 1/s
 |  | 8 µM | LAALS [LAALS, reference compound] |  |  |  |  |  |  |  |  | 
